The values below come from US20260297070A1, “CYCLIC [COMPOUND LEFT OUT] WRN INHIBITORS” (Nimbus Wadjet, Inc., priority 2023, published 2026).

The target in this experiment is T1, human Werner helicase (WRN-BV08, Uniprot Q14191, amino acids 517-1235 with L1074F point mutation) (Homo sapiens, UniProt Q14191, L1074F).
T1 construct: Uniprot Q14191, amino acids 517-1235 with L1074F point mutation; TEV-cleavable 8×His (C, cleaved yes); made in house; host or cells: Sf9 insect cells (baculovirus)
T1 sequence (Q14191 with tags, fused parts or gaps L1074F limits assumed): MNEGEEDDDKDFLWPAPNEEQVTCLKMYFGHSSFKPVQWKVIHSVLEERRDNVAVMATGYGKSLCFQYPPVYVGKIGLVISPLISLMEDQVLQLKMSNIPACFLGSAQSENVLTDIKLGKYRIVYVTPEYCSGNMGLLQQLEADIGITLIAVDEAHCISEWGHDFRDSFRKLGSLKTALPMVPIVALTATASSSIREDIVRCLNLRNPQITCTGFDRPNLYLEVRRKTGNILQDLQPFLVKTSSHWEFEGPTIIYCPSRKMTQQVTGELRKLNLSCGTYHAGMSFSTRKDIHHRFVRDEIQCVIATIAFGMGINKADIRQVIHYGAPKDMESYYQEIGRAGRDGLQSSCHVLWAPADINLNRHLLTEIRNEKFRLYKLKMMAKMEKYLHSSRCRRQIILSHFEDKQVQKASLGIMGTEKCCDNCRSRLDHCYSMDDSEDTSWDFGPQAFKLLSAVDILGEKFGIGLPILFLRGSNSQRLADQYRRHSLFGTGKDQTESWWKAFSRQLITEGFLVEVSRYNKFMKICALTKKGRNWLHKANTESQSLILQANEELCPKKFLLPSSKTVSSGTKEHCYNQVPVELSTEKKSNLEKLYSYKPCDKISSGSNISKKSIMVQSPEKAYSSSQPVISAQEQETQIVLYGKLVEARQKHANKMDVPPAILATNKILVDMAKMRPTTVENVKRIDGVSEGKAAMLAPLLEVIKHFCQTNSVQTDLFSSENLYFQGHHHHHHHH
In words: WRN (BV08) ADP-Glo Assay. Format: biochemical. The note with it: 0.15 nM WRN, 5 μM ATP, 0.1 nM DNA duplex, 15 min preincubation, 60 min at 25° C., pH 7.5, 1% DMSO; read-out: ADP-Glo_hWRN_IC50. The procedure, abridged: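 Percent inhibition was normalised to DMSO (max) and 20 μM NSC-617145 (min) controls from ADP-Glo luminescence, and IC50 values came from a four-parameter fit. The reaction ran 60 min at 25 °C with 0.15 nM WRN, 5 μM ATP and 0.1 nM duplex DNA.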
A general note: ADP-Glo first removes unused ATP, then detects ADP through luciferase.
In the case of `O=C(Cc1ccc(-c2cccc(F)c2)cc1)N(Cc1ccncc1)C1C=CS(=O)(=O)C1` (stereo not shown) [I-188, N-(1,1-dioxo-2,3-dihydro-1lambda6-thiophen-3-yl)-2-{3′-fluoro-[1,1′-biphenyl]-4-yl}-N-[(pyridin-4-yl)methyl]acetamide], the IC50 was in the range of 0.5 to 5 µM.
With `Cc1csc(CN(C(=O)Cc2ccc(-n3cccc3)cc2)C2C=CS(=O)(=O)C2)n1` (stereo not shown) [I-189, N-(1,1-dioxo-2,3-dihydro-1lambda6-thiophen-3-yl)-N-[(4-methyl-1,3-thiazol-2-yl)methyl]-2-[4-(1H-pyrrol-1-yl)phenyl]acetamide], the IC50 lay in the range of 0.5 to 5 µM.
For `N#Cc1csc(CN(C(=O)Cc2ccc(-n3cccc3)cc2)C2C=CS(=O)(=O)C2)n1` (stereo not shown) [I-190, N-[(4-cyano-1,3-thiazol-2-yl)methyl]-N-(1,1-dioxo-2,3-dihydro-1lambda6-thiophen-3-yl)-2-[4-(1H-pyrrol-1-yl)phenyl]acetamide], the IC50 fell in the range of 0.5 to 5 µM.
Under `CC(F)(F)c1ccc(CC(=O)N(Cc2ccncc2)C2C=CS(=O)(=O)C2)cc1` (stereo not shown) [I-191, 2-[4-(1,1-difluoroethyl)phenyl]-N-(1,1-dioxo-2,3-dihydro-1lambda6-thiophen-3-yl)-N-[(pyridin-4-yl)methyl]acetamide] stands 0.5 to 5 µM; under `CN(C)C(=O)C(C(=O)N(Cc1ccnc(C(C)(C)O)c1)C1C=CS(=O)(=O)C1)c1ccc(S(F)(F)(F)(F)F)cc1` (stereo not shown) [I-192, N′-(1,1-dioxo-2,3-dihydro-1lambda6-thiophen-3-yl)-N′-{[2-(2-hydroxypropan-2-yl)pyridin-4-yl]methyl}-N,N-dimethyl-2-[4-(pentafluoro-lambda6-sulfanyl)phenyl]propanediamide], 0.5 to 5 µM; under `COc1cc(CN(C(=O)Cc2ccc(-c3ccc(F)cc3O)nc2)C2C=CS(=O)(=O)C2)ccn1` (stereo not shown) [I-194, N-(1,1-dioxido-2,3-dihydrothiophen-3-yl)-2-(6-(4-fluoro-2-hydroxyphenyl)pyridin-3-yl)-N-((2-methoxypyridin-4-yl)methyl)acetamide], 5 to 10 µM.
Take `COCC(C(=O)N(Cc1ccnc(C(C)(C)O)c1)C1C=CS(=O)(=O)C1)c1ccc(-c2ccc(F)c(F)c2)cc1F` (stereo not shown) [I-195, N-(1,1-dioxo-2,3-dihydro-1lambda6-thiophen-3-yl)-N-{[2-(2-hydroxypropan-2-yl)pyridin-4-yl]methyl}-3-methoxy-2-{3,3′,4′-trifluoro-[1,1′-biphenyl]-4-yl}propanamide]: the IC50 lay within 0.5 to 5 µM.
On to `O=C(Cc1ccc(-c2ccc(F)cc2)cc1C(F)F)N(Cc1ccncc1)C1C=CS(=O)(=O)C1` (stereo not shown) [I-196, 2-[3-(difluoromethyl)-4′-fluoro-[1,1′-biphenyl]-4-yl]-N-(1,1-dioxo-2,3-dihydro-1lambda6-thiophen-3-yl)-N-[(pyridin-4-yl)methyl]acetamide], for which the IC50 fell in the range of 0.5 to 5 µM.
As to `CC(C)c1ccc(CC(=O)N(Cc2ccncc2)C2C=CS(=O)(=O)C2)cc1` (stereo not shown) [I-197, N-(1,1-dioxo-2,3-dihydro-1lambda6-thiophen-3-yl)-2-[4-(propan-2-yl)phenyl]-N-[(pyridin-4-yl)methyl]acetamide], the IC50 was in the range of 0.5 to 5 µM.
`COc1cc(CN(C(=O)Cc2ncc(-c3ccc(F)c(F)c3)cn2)C2C=CS(=O)(=O)C2)ccn1` (stereo not shown) [I-198, 2-[5-(3,4-difluorophenyl)pyrimidin-2-yl]-N-(1,1-dioxo-2,3-dihydro-1lambda6-thiophen-3-yl)-N-[(2-methoxypyridin-4-yl)methyl]acetamide]: the IC50 lay in the range of 0.5 to 5 µM.
The same measure for `O=C(Cc1ccc(-c2ccc(F)cc2)cc1)N(Cc1ccncc1)C1C=CS(=O)(=O)C1` (stereo not shown) [I-200, N-(1,1-dioxo-2,3-dihydro-1lambda6-thiophen-3-yl)-2-{4′-fluoro-[1,1′-biphenyl]-4-yl}-N-[(pyridin-4-yl)methyl]acetamide]: 0.5 to 5 µM; for `O=C(Cc1ccc(-n2cccc2)cc1)N(Cc1cccc(Cl)c1)C1C=CS(=O)(=O)C1` (stereo not shown) [I-201, N-[(3-chlorophenyl)methyl]-N-(1,1-dioxo-2,3-dihydro-1lambda6-thiophen-3-yl)-2-[4-(1H-pyrrol-1-yl)phenyl]acetamide]: 0.5 to 5 µM; for `COc1cc(CN(C(=O)Cc2ccc(-n3cccc3C)cc2F)C2C=CS(=O)(=O)C2)nc(OC)c1` (stereo not shown) [I-202, N-[(4,6-dimethoxypyridin-2-yl)methyl]-N-(1,1-dioxo-2,3-dihydro-1lambda6-thiophen-3-yl)-2-[2-fluoro-4-(2-methyl-1H-pyrrol-1-yl)phenyl]acetamide]: 0.5 to 5 µM.
Regarding `O=C(Cc1ccc(-c2ccc(F)cc2F)cc1)N(Cc1ccncc1)C1C=CS(=O)(=O)C1` (stereo not shown) [I-203, 2-{2′,4′-difluoro-[1,1′-biphenyl]-4-yl}-N-(1,1-dioxo-2,3-dihydro-1lambda6-thiophen-3-yl)-N-[(pyridin-4-yl)methyl]acetamide], the IC50 was in the range of 0.5 to 5 µM.
As for `CCc1cccn1-c1ccc(CC(=O)N(Cc2ccnc(OC)c2)C2C=CS(=O)(=O)C2)c(F)c1` (stereo not shown) [I-204, N-(1,1-dioxo-2,3-dihydro-1lambda6-thiophen-3-yl)-2-[4-(2-ethyl-1H-pyrrol-1-yl)-2-fluorophenyl]-N-[(2-methoxypyridin-4-yl)methyl]acetamide], the IC50 lay within 0.5 to 5 µM.
On to `O=C(Cc1ncc(-c2ccc(F)cc2)cc1F)N(Cc1ccncc1)C1C=CS(=O)(=O)C1` (stereo not shown) [I-205, N-(1,1-dioxo-2,3-dihydro-1lambda6-thiophen-3-yl)-2-[3-fluoro-5-(4-fluorophenyl)pyridin-2-yl]-N-[(pyridin-4-yl)methyl]acetamide], for which the IC50 lay within 0.5 to 5 µM.
Under `Cc1cccn1-c1ccc(CC(=O)N(Cc2ccncc2)C2C=CS(=O)(=O)C2)cc1` (stereo not shown) [I-206, N-(1,1-dioxo-2,3-dihydro-1lambda6-thiophen-3-yl)-2-[4-(2-methyl-1H-pyrrol-1-yl)phenyl]-N-[(pyridin-4-yl)methyl]acetamide] stands 0.5 to 5 µM; under `Cc1cc(CN(C(=O)Cc2ccc(-n3cccc3)cc2)C2C=CS(=O)(=O)C2)ccn1` (stereo not shown) [I-207, N-(1,1-dioxo-2,3-dihydro-1lambda6-thiophen-3-yl)-N-[(2-methylpyridin-4-yl)methyl]-2-[4-(1H-pyrrol-1-yl)phenyl]acetamide], 0.5 to 5 µM.
Take `O=C(Cc1ccc(-n2cccc2)cc1Cl)N(Cc1ccncc1)C1C=CS(=O)(=O)C1` (stereo not shown) [I-208, 2-[2-chloro-4-(1H-pyrrol-1-yl)phenyl]-N-(1,1-dioxo-2,3-dihydro-1lambda6-thiophen-3-yl)-N-[(pyridin-4-yl)methyl]acetamide]: the IC50 was in the range of 0.5 to 5 µM.
For `COC(C(=O)N(Cc1ccnc(C(C)(C)O)c1)C1C=CS(=O)(=O)C1)c1ccc(C(F)(F)F)cc1` (stereo not shown) [I-209, N-(1,1-dioxo-2,3-dihydro-1lambda6-thiophen-3-yl)-N-{[2-(2-hydroxypropan-2-yl)pyridin-4-yl]methyl}-2-methoxy-2-[4-(trifluoromethyl)phenyl]acetamide], the IC50 is 0.5 to 5 µM.
With `O=C(Cc1ccc(-n2cccc2)cc1)N(Cc1ccc2ccccc2n1)C1C=CS(=O)(=O)C1` (stereo not shown) [I-210, N-(1,1-dioxo-2,3-dihydro-1lambda6-thiophen-3-yl)-2-[4-(1H-pyrrol-1-yl)phenyl]-N-[(quinolin-2-yl)methyl]acetamide], the IC50 is 0.5 to 5 µM.
In the case of `C#CCCCC(=O)N1CCN(Cc2ccc(CN(C(=O)Cc3ccc(-n4cccc4)cc3F)C3C=CS(=O)(=O)C3)cc2)CC1` (stereo not shown) [I-211, N-(1,1-dioxo-2,3-dihydro-1lambda6-thiophen-3-yl)-2-[2-fluoro-4-(1H-pyrrol-1-yl)phenyl]-N-[(4-{[4-(hex-5-ynoyl)piperazin-1-yl]methyl}phenyl)methyl]acetamide], the IC50 is 0.5 to 5 µM.
In the case of `COc1cc(CN(C(=O)C(C)c2ccc(-n3cccc3)cc2)C2C=CS(=O)(=O)C2)ccn1` (stereo not shown) [I-212, N-(1,1-dioxo-2,3-dihydro-1lambda6-thiophen-3-yl)-N-[(2-methoxypyridin-4-yl)methyl]-2-[4-(1H-pyrrol-1-yl)phenyl]propanamide], the IC50 was 0.5 to 5 µM.
With `C#CCCCC(=O)N1CCN(c2ccc(CN(C(=O)Cc3ccc(-n4cccc4)cc3F)C3C=CS(=O)(=O)C3)cc2)CC1` (stereo not shown) [I-213, N-(1,1-dioxo-2,3-dihydro-1lambda6-thiophen-3-yl)-2-[2-fluoro-4-(1H-pyrrol-1-yl)phenyl]-N-({4-[4-(hex-5-ynoyl)piperazin-1-yl]phenyl}methyl)acetamide], the IC50 is 0.5 to 5 µM.
Under `O=C(Cc1ccc(-n2cccc2)cc1)N(Cc1ccnc(OC(F)F)c1)C1C=CS(=O)(=O)C1` (stereo not shown) [I-215, N-{[2-(difluoromethoxy)pyridin-4-yl]methyl}-N-(1,1-dioxo-2,3-dihydro-1lambda6-thiophen-3-yl)-2-[4-(1H-pyrrol-1-yl)phenyl]acetamide] stands 0.5 to 5 µM; under `CCC(C)c1ccc(CC(=O)N(Cc2ccncc2)C2C=CS(=O)(=O)C2)cc1` (stereo not shown) [I-216, 2-[4-(butan-2-yl)phenyl]-N-(1,1-dioxo-2,3-dihydro-1lambda6-thiophen-3-yl)-N-[(pyridin-4-yl)methyl]acetamide], 5 to 10 µM.
Turning to `O=C(Cc1ccc(C2CCCC2)cc1)N(Cc1ccncc1)C1C=CS(=O)(=O)C1` (stereo not shown) [I-217, 2-(4-cyclopentylphenyl)-N-(1,1-dioxo-2,3-dihydro-1lambda6-thiophen-3-yl)-N-[(pyridin-4-yl)methyl]acetamide], the IC50 lay within 0.5 to 5 µM.
Regarding `O=C(C(C(=O)N(Cc1ccncc1)C1C=CS(=O)(=O)C1)c1ccc(-c2ccc(F)cc2)cc1)N1CCOCC1` (stereo not shown) [I-218, N-(1,1-dioxo-2,3-dihydro-1lambda6-thiophen-3-yl)-2-{4′-fluoro-[1,1′-biphenyl]-4-yl}-3-(morpholin-4-yl)-3-oxo-N-[(pyridin-4-yl)methyl]propanamide], the IC50 is 5 to 10 µM.
